From PubChem BioAssay AID2060510 (Molecular Pharmacology Branch, DTP, NCI, 2025)

Test system: 439559-082-T-J2-PDC spheroids viability
Assay: Anticancer human tumor 439559-082-T-J2-PDC patient-derived colon adenocarcinoma cell line growth inhibition [GQUAD]
Settings: for IC50: curve of first compound; for viability, T/C: stronger effect = lower value
Summary of the method: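 Tumor cells were grown as complex spheroids with HUVEC endothelial cells and mesenchymal stem cells as stroma. G-quadruplex stabilizers were combined with targeted agents over half-log dilutions from near the clinical Cmax, or from 10 microM.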

[1] = second compound 0.0316 µM, first compound 0.000999 µM
[2] = second compound 0.0316 µM, first compound 0.00316 µM
[3] = second compound 0.0316 µM, first compound 0.00999 µM
[4] = second compound 0.0316 µM, first compound 0.0316 µM
[5] = second compound 0.0316 µM, first compound 0.0999 µM
[6] = second compound 0.0316 µM, first compound 0.316 µM
[7] = second compound 0.1 µM, first compound 0.000999 µM
[8] = second compound 0.1 µM, first compound 0.00316 µM
[9] = second compound 0.1 µM, first compound 0.00999 µM
[10] = second compound 0.1 µM, first compound 0.0316 µM
[11] = second compound 0.1 µM, first compound 0.0999 µM
[12] = second compound 0.1 µM, first compound 0.316 µM
[13] = second compound 0.316 µM, first compound 0.000999 µM
[14] = second compound 0.316 µM, first compound 0.00316 µM
[15] = second compound 0.316 µM, first compound 0.00999 µM
[16] = second compound 0.316 µM, first compound 0.0316 µM
[17] = second compound 0.316 µM, first compound 0.0999 µM
[18] = second compound 0.316 µM, first compound 0.316 µM
[19] = second compound 1 µM, first compound 0.000999 µM
[20] = second compound 1 µM, first compound 0.00316 µM
[21] = second compound 1 µM, first compound 0.00999 µM
[22] = second compound 1 µM, first compound 0.0316 µM
[23] = second compound 1 µM, first compound 0.0999 µM
[24] = second compound 1 µM, first compound 0.316 µM
[25] = second compound 3.16 µM, first compound 0.000999 µM
[26] = second compound 3.16 µM, first compound 0.00316 µM
[27] = second compound 3.16 µM, first compound 0.00999 µM
[28] = second compound 3.16 µM, first compound 0.0316 µM
[29] = second compound 3.16 µM, first compound 0.0999 µM
[30] = second compound 3.16 µM, first compound 0.316 µM
[31] = second compound 10 µM, first compound 0.000999 µM
[32] = second compound 10 µM, first compound 0.00316 µM
[33] = second compound 10 µM, first compound 0.00999 µM
[34] = second compound 10 µM, first compound 0.0316 µM
[35] = second compound 10 µM, first compound 0.0999 µM
[36] = second compound 10 µM, first compound 0.316 µM
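Further: spheroids exposed to the agents for 7 days before readout.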
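Wherever viability, T/C is given: percent of luminescence signal in DMSO vehicle wells taken as 100% viability.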

With CCc1c2c(nc3ccc(O)cc13)-c1cc3c(c(=O)n1C2)COC(=O)[C@]3(O)CC + Cc1cnc(CNC(=O)c2c(=O)c3ccc(N4CCCN(C)CC4)nc3n3c2sc2ccccc23)cn1 the IC50 (second compound 0.0316 µM) was 157 nM, the IC50 (second compound 0.1 µM) was 122 nM and the IC50 (second compound 0.316 µM) was 125 nM. For the same compound, the IC50 (second compound 1 µM) was 92.4 nM, the IC50 (second compound 3.16 µM) was 61 nM and the IC50 (second compound 10 µM) was 67.2 nM. For the same compound, the viability, T/C [1] was 99.4%, the viability, T/C [2] was 83.5% and the viability, T/C [3] was 78.8%. It also gave a viability, T/C [4] of 66.4%, a viability, T/C [5] of 53.7% and a viability, T/C [6] of 43.1%. The viability, T/C [7] was 88.7%, the viability, T/C [8] was 79.5% and the viability, T/C [9] was 76.2%. It also gave a viability, T/C [10] of 68.1%, a viability, T/C [11] of 53.4% and a viability, T/C [12] of 34%. It also gave a viability, T/C [13] of 77.3%, a viability, T/C [14] of 70.1% and a viability, T/C [15] of 72.3%. It also gave a viability, T/C [16] of 65%, a viability, T/C [17] of 55% and a viability, T/C [18] of 31.8%. It also gave a viability, T/C [19] of 67.3%, a viability, T/C [20] of 69.9% and a viability, T/C [21] of 60.6%. It also gave a viability, T/C [22] of 59.4%, a viability, T/C [23] of 50.1% and a viability, T/C [24] of 33.8%. The viability, T/C [25] was 65.7%, the viability, T/C [26] was 74.8% and the viability, T/C [27] was 56.9%. The viability, T/C [28] was 55.7%, the viability, T/C [29] was 47.6% and the viability, T/C [30] was 24.6%. The viability, T/C [31] was 60.6%, the viability, T/C [32] was 60.4% and the viability, T/C [33] was 58.3%. For the same compound, the viability, T/C [34] was 52.8%, the viability, T/C [35] was 48.8% and the viability, T/C [36] was 20.1%.
Cc1cccc(N(C)C(=O)C2C(O)CCN2c2nc(C)cc(C(F)(F)F)c2C#N)c1 (stereo unspecified) + Cc1cnc(CNC(=O)c2c(=O)c3ccc(N4CCCN(C)CC4)nc3n3c2sc2ccccc23)cn1 was tested, and the IC50 (second compound 0.0316 µM) was over 10000 nM, the IC50 (second compound 0.1 µM) was over 10000 nM and the IC50 (second compound 0.316 µM) was over 10000 nM. For the same compound, the IC50 (second compound 1 µM) was over 10000 nM, the IC50 (second compound 3.16 µM) was over 10000 nM and the IC50 (second compound 10 µM) was over 10000 nM. For the same compound, the viability, T/C [4] was 101%, the viability, T/C (second compound 0.0316 µM, first compound 0.1 µM) was 95.6% and the viability, T/C [6] was 82.5%. For the same compound, the viability, T/C (second compound 0.0316 µM, first compound 1 µM) was 99%, the viability, T/C (second compound 0.0316 µM, first compound 3.16 µM) was 95.2% and the viability, T/C (second compound 0.0316 µM, first compound 10 µM) was 101%. It also gave a viability, T/C [10] of 117%, a viability, T/C (second compound 0.1 µM, first compound 0.1 µM) of 93.5% and a viability, T/C [12] of 90.2%. The viability, T/C (second compound 0.1 µM, first compound 1 µM) was 85.4%, the viability, T/C (second compound 0.1 µM, first compound 3.16 µM) was 93.3% and the viability, T/C (second compound 0.1 µM, first compound 10 µM) was 92.6%. The viability, T/C [16] was 90.8%, the viability, T/C (second compound 0.316 µM, first compound 0.1 µM) was 86.3% and the viability, T/C [18] was 79.3%. For the same compound, the viability, T/C (second compound 0.316 µM, first compound 1 µM) was 82.2%, the viability, T/C (second compound 0.316 µM, first compound 3.16 µM) was 92.2% and the viability, T/C (second compound 0.316 µM, first compound 10 µM) was 84.3%. The viability, T/C [22] was 83.1%, the viability, T/C (second compound 1 µM, first compound 0.1 µM) was 81.2% and the viability, T/C [24] was 74.2%. The viability, T/C (second compound 1 µM, first compound 1 µM) was 76.3%, the viability, T/C (second compound 1 µM, first compound 3.16 µM) was 80.5% and the viability, T/C (second compound 1 µM, first compound 10 µM) was 74.8%. The viability, T/C [28] was 73.4%, the viability, T/C (second compound 3.16 µM, first compound 0.1 µM) was 72.1% and the viability, T/C [30] was 71.9%. The viability, T/C (second compound 3.16 µM, first compound 1 µM) was 69.3%, the viability, T/C (second compound 3.16 µM, first compound 3.16 µM) was 72.7% and the viability, T/C (second compound 3.16 µM, first compound 10 µM) was 66.3%. The viability, T/C [34] was 72.1%, the viability, T/C (second compound 10 µM, first compound 0.1 µM) was 70.2% and the viability, T/C [36] was 68.5%. The viability, T/C (second compound 10 µM, first compound 1 µM) was 67.7%, the viability, T/C (second compound 10 µM, first compound 3.16 µM) was 72.5% and the viability, T/C (second compound 10 µM, first compound 10 µM) was 63%.
CC[C@@]1(O)C(=O)OCc2c1cc1n(c2=O)Cc2cc3c(CN(C)C)c(O)ccc3nc2-1 + Cc1[nH]c2ccc(F)cc2c1-c1nc2c3cccnc3c3ncccc3c2[nH]1 gave an IC50 (second compound 0.0316 µM) of over 316 nM, an IC50 (second compound 0.1 µM) of over 316 nM and an IC50 (second compound 0.316 µM) of over 316 nM. The IC50 (second compound 1 µM) was over 316 nM, the IC50 (second compound 3.16 µM) was over 316 nM and the IC50 (second compound 10 µM) was over 316 nM. The viability, T/C [1] was 99.4%, the viability, T/C [2] was 109% and the viability, T/C [3] was 94.5%. For the same compound, the viability, T/C [4] was 99.7%, the viability, T/C [5] was 96.3% and the viability, T/C [6] was 82.4%. It also gave a viability, T/C [7] of 101%, a viability, T/C [8] of 102% and a viability, T/C [9] of 99.5%. For the same compound, the viability, T/C [10] was 96.2%, the viability, T/C [11] was 103% and the viability, T/C [12] was 83%. The viability, T/C [13] was 98.1%, the viability, T/C [14] was 92.1% and the viability, T/C [15] was 89.1%. For the same compound, the viability, T/C [16] was 99.2%, the viability, T/C [17] was 90.5% and the viability, T/C [18] was 83.3%. It also gave a viability, T/C [19] of 94%, a viability, T/C [20] of 101% and a viability, T/C [21] of 98.6%. The viability, T/C [22] was 84.9%, the viability, T/C [23] was 93.3% and the viability, T/C [24] was 83.6%. It also gave a viability, T/C [25] of 81.8%, a viability, T/C [26] of 81.2% and a viability, T/C [27] of 88.9%. It also gave a viability, T/C [28] of 78.2%, a viability, T/C [29] of 86.2% and a viability, T/C [30] of 73.5%. For the same compound, the viability, T/C [31] was 86.4%, the viability, T/C [32] was 78.7% and the viability, T/C [33] was 75.3%. It also gave a viability, T/C [34] of 76%, a viability, T/C [35] of 90.1% and a viability, T/C [36] of 56.9%.
